{"source": "ChEMBL document CHEMBL1201862", "about": "“PubChem BioAssay data set” (2004)", "key": {"[1]": {"test_system": "BJ", "test": "BJ-TERT fibroblast viability loss – cell-based, RAS-independent, luminescence, dose response (AID 1933)", "assay_type": "functional", "settings": "Homo sapiens"}, "[2]": {"test_system": "BJ", "test": "cells", "assay_type": "functional, cell-based", "settings": "Homo sapiens"}, "[3]": {"test_system": "BJ", "test": "BJ-TERT-LT-ST fibroblast viability loss – cell-based, RAS-independent, luminescence, dose response (AID 1935);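 note: BJ fibroblasts immortalized with TERT plus LT and ST oncogenes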", "assay_type": "functional", "settings": "Homo sapiens"}, "[4]": {"test": "DRD fibroblast viability loss – cell-based, non-viral oncogenic, luminescence, dose response (AID 1934)", "assay_type": "functional", "settings": "Homo sapiens"}, "[5]": {"test": "HEK-293T viability loss after treatment – luminescence, T-cell screen hits, cytotoxicity control for TCR NF-kB inhibitor project, dose response (AID 489026);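 note: cells exposed to compound about 14 hours before the viability readout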", "assay_type": "functional, cell-based"}, "[6]": {"molecular_target": "RNA-editing ligase 1, mitochondrial (Trypanosoma brucei brucei, UniProt P86926)", "sequence (P86926 whole entry)": "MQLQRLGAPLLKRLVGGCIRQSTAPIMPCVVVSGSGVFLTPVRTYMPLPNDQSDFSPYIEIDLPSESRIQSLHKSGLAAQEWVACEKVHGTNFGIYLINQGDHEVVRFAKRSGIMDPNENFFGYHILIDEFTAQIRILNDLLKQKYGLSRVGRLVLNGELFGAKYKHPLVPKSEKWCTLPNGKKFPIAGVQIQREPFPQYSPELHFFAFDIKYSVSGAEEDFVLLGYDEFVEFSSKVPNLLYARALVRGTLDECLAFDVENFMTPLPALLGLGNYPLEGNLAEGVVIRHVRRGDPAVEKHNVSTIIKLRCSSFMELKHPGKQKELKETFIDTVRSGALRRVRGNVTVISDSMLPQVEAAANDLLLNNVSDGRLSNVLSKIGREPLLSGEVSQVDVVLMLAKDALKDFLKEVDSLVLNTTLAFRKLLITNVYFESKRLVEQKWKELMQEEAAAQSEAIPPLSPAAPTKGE", "test": "inhibition of trypanosome RNA editing ligase – biochemical, fluorescence, Trypanosoma brucei, dose response (AID 1117295)", "assay_type": "functional"}, "[7]": {"test": "CellTiter-Glo luminescence survival assay, SW480 colon tumor line, concentration-response curve, half-maximal inhibitory concentration (AID 1117338)", "assay_type": "functional"}, "[8]": {"test": "RKO cell viability reduction, dose response, CellTiter-Glo luminescence (AID 1117322)", "assay_type": "functional"}, "[9]": {"test": "cytotoxicity toward HCT116 cells – cell-based, CellTiter-Glo luminescence, IC50, dose response (AID 1117332)", "assay_type": "functional", "settings": "HCT-116"}, "[10]": {"test": "SNU-C1 cell viability reduction, dose response, CellTiter-Glo luminescence (AID 1117323)", "assay_type": "functional, cell-based"}, "[11]": {"test": "cytotoxicity toward Colo320 cells – cell-based, CellTiter-Glo luminescence, IC50, dose response (AID 1117334)", "assay_type": "functional", "settings": "COLO 320"}, "[12]": {"test": "cytotoxicity toward HT-29 cells – cell-based, CellTiter-Glo luminescence, IC50, dose response (AID 1117330)", "assay_type": "functional"}, "[13]": {"test": "Reduced DLD-1 viability, concentration-response, CellTiter-Glo luminescence (AID 1117352)", "assay_type": "functional"}, "[14]": {"test": "HCT116 cell viability decrease, GSK3B pretreatment – CellTiter-Glo, IC50, dose response (AID 1117339)", "assay_type": "functional", "settings": "HCT-116"}, "[15]": {"molecular_target": "Mitogen-activated protein kinase 10 (Homo sapiens, UniProt P53779)", "sequence (P53779 whole entry)": "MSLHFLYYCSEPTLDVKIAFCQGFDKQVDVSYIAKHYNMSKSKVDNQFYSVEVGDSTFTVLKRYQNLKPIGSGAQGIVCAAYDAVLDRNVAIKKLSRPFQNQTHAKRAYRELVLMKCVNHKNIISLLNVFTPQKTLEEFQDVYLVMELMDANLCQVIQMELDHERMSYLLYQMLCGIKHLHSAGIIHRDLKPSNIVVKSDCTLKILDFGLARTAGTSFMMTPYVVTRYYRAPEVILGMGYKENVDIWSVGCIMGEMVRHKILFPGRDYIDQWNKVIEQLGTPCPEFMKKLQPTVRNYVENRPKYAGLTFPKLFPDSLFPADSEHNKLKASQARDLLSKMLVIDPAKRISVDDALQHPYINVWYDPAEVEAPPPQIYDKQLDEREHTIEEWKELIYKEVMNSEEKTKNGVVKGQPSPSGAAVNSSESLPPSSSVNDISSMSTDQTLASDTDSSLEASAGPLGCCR", "test": "Dose response biochemical screening assay for inhibitors of c-Jun N-Terminal Kinase 3 (JNK3). [Related pubchem assays: 746 ]"}, "[16]": {"molecular_target": "C-X-C chemokine receptor type 4 (Homo sapiens, UniProt P61073)", "sequence (P61073 whole entry)": "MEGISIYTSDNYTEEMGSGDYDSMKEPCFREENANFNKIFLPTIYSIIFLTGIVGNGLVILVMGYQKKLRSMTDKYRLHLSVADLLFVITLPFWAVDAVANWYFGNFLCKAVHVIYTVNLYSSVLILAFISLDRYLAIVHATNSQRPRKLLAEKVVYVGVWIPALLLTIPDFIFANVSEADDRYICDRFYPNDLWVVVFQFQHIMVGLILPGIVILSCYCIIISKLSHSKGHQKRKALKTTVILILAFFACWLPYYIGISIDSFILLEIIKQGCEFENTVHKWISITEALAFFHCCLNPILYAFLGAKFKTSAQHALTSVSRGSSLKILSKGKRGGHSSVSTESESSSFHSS", "test": "SAR analysis of small molecule antagonists of the CXCR6 receptor using a CXCR4 receptor luminescent beta-arrestin counterscreen.", "assay_type": "functional"}, "[17]": {"molecular_target": "C-C chemokine receptor type 6 (Homo sapiens, UniProt P51684)", "sequence (P51684 whole entry)": "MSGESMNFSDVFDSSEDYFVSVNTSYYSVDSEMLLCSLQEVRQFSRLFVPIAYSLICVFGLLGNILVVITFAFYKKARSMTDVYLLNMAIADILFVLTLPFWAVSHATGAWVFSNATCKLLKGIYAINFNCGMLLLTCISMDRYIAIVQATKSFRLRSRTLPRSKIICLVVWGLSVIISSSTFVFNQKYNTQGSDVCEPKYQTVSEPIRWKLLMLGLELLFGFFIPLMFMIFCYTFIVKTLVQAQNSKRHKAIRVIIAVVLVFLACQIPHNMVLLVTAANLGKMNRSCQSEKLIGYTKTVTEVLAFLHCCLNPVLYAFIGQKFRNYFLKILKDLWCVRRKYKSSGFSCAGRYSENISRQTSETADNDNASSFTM", "test": "SAR analysis of small molecule antagonists of the CXCR6 receptor using a CCR6 receptor luminescent beta-arrestin counterscreen.", "assay_type": "functional"}, "[18]": {"test": "viability reduction in hepatoma cells – cell-based, ATP luminescence, dry powder, Set4, cytotoxicity control, dose response (AID 743143)", "assay_type": "functional", "settings": "HepG2"}, "[19]": {"test": "viability loss in A549 lung cancer cells – cell-based, CellTiter-Glo luminescence, dry powder, set 3, cytotoxicity control, dose response (AID 743146)", "assay_type": "functional"}, "[20]": {"test": "antimalarial activity against Dd2 parasites – SYBR Green fluorescence, erythrocytes, dry powder, set 2, dose response (AID 1159574)", "assay_type": "functional, cell-based"}, "[21]": {"test": "viability loss in THP-1 monocytes – THP-1 cells, cytotoxicity control for Vif-APOBEC3G degradation inhibitor project, dose response (AID 1117359)", "assay_type": "functional", "settings": "THP-1"}, "[22]": {"molecular_target": "Glutathione-S-transferase (Schistosoma japonicum, UniProt Q26513)", "sequence (Q26513 whole entry)": "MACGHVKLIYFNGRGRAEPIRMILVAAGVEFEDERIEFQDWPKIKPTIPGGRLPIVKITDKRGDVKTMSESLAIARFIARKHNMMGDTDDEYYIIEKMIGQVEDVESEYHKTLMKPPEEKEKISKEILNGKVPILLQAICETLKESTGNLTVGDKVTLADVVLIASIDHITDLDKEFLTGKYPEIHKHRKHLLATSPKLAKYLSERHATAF", "test": "GST-antibody interaction or FRET quenching – biochemical, TR-FRET, artefact control for Vif-APOBEC3G degradation inhibitor project, dose response (AID 1117362)", "assay_type": "functional"}}, "note": "Where “and” joins values, the source holds several entries; their conditions need not be identical. Equal values may be shown once. Calls of active or inactive are those of the source.", "data": [{"molecule": "CC1(C)CC(N2CCN(C(c3ccccc3)c3ccccc3)CC2)=CC(=[N+]2CCCCC2)C1", "values": [{"measurement": "EC50", "setting": "[1]", "value": "2.36 µM (active)"}, {"measurement": "EC50", "setting": "[2]", "value": "3.77 µM (active)"}, {"measurement": "EC50", "setting": "[3]", "value": "3.51 µM (inconclusive)"}, {"measurement": "EC50", "setting": "[4]", "value": "3.82 µM (active)"}, {"measurement": "IC50", "setting": "[5]", "value": "> 80 µM (inactive)"}, {"measurement": "IC50", "setting": "[6]", "value": "> 96.6 µM (inactive)"}]}, {"molecule": "O=C(OCCO)c1ccccc1O", "values": [{"measurement": "IC50", "setting": "[7]", "value": "> 20 µM (inactive)"}, {"measurement": "IC50", "setting": "[8]", "value": "> 20 µM (inactive)"}, {"measurement": "IC50", "setting": "[9]", "value": "> 20 µM (inactive)"}, {"measurement": "IC50", "setting": "[10]", "value": "> 20 µM (inactive)"}, {"measurement": "IC50", "setting": "[11]", "value": "> 20 µM (inactive)"}, {"measurement": "IC50", "setting": "[12]", "value": "> 20 µM (inactive)"}, {"measurement": "IC50", "setting": "[13]", "value": "> 20 µM (inactive)"}, {"measurement": "IC50", "setting": "[14]", "value": "> 20 µM (inactive)"}]}, {"molecule": "COc1cccc(C2=NOC(C(=O)Nc3cc(OC)c(OC)c(OC)c3)C2)c1", "note": "(configuration not stated)", "values": [{"measurement": "IC50", "setting": "[15]", "value": "2.02 µM (active)"}]}, {"molecule": "COc1cc(C(=O)NC2CC3CCCC(C2)N3CC(=O)Nc2ccccc2Cl)cc(OC)c1OC", "note": "(configuration not stated)", "values": [{"measurement": "IC50", "setting": "[16]", "value": "> 79 µM (inactive) and 60.1 µM (inactive)"}, {"measurement": "IC50", "setting": "[17]", "value": "> 79 µM (inactive)"}]}, {"molecule": "COc1cc(C(=O)NCCC(=O)NC2CCCc3ccccc32)cc(OC)c1OC", "note": "(configuration not stated)", "values": [{"measurement": "AC50", "setting": "[18]", "value": "21.7 µM (active)"}, {"measurement": "AC50", "setting": "[19]", "value": "26.7 µM (active)"}]}, {"molecule": "O=C(c1ccccc1F)N1CC(=O)N2[C@H](C1)[C@H](c1ccc(-c3cccnc3)cc1)[C@@H]2CO", "values": [{"measurement": "AC50", "setting": "[20]", "value": "19.4 µM (active)"}]}, {"molecule": "O=C(COC(=O)c1ccccc1OC(F)F)Nc1ccc2[nH]c(O)nc2c1", "values": [{"measurement": "CC50", "setting": "[21]", "value": "> 40 µM (active)"}, {"measurement": "IC50", "setting": "[22]", "value": "> 100 µM (active)"}]}]}
